# pIC50: −log10 of the molar value. “And” between values parts separate entries of the source, which are not always exact repeats. Equal entries are not always repeated. Where two headings read alike, the source gives them in different places.
# Tests used:
# [1] = ABTS radical cation decolorization assay; details: for AA (mg/gm) Avg (ABTS+ activity) / AA (mg/gm) (ABTS+ activity), single trial: Conc. 20 µg/mL; for AA (mg/gm) Avg (ABTS+ activity): average of trials A-C; for AA (mg/gm) (ABTS+ activity), single trial: single trials A, B, C; for ABTS^+ IC50: mean ± SD, triplicate, 30 min, 734 nm
# Experimental: ABTS radical cation decolorization assay was performed to measure the total antioxidant activity of the samples by obeying the previously described method ([Re et al., 1999]). In brief, ABTS^•+ radicals were generated by treating 7 mM ABTS^+ aqueous solution with 2.4 mM potassium persulfate for 12-16 h at room temperature in the dark. Prior to use, this solution was diluted with ethanol (approx. 1:89 v/v) and equilibrated to […] absorbance at 734 nm to obtain the working solution. Afterward, a 1.0 mL of working solution was reacted with 20 µL (1 mg mL^−1) samples and incubated for 30 min. After incubation, samples were scanned at 734 nm absorbance wavelength and the percentage of inhibition was determined. Ascorbic acid (AA) was applied reference standard.
# [2] = DPPH radical scavenging activity; details: for AA (mg/gm) Avg (DPPH activity) / AA (mg/gm) (DPPH activity), single trial: Conc 20 µg/mL; for AA (mg/gm) Avg (DPPH activity): average of trials A-C; for AA (mg/gm) (DPPH activity), single trial: single trials A, B, C; for DPPH IC50: mean ± SD, triplicate, 30 min, 517 nm
# Experimental: The ability of the samples to scavenge DPPH radical was determined by [Wang, Chen & Hou (2019)] method with slight modification ([Wang, Chen & Hou, 2019]). […] Samples were incubated at ambient temperature under dark conditions for 30 min and the absorbance wavelength was measured at 517 nm against a blank sample. DPPH^• solution and ascorbic acid were used as blank samples and positive control, respectively.
# where Ab and As are the absorbance values of the blank and test samples, respectively.
# Staphylococcus aureus = test: MIC, broth microdilution with resazurin; type: cell-based; details: 24 h at 37 °C; for MIC: Staphylococcus aureus, 24 h
# Experimental: (§1) The acetylcholinesterase (AChE) and butyrylcholinesterase (BChE) were obtained from the mouse brain and human blood at the Pharmacology Department of King Saud University, SaudiArabia. Escherichia coli (ATCC 25922), Pseudomonas aeruginosa (ATCC 27853), and Staphylococcus aureus were provided by Microbiology Department, King Khaled University Hospital (KKUH), Saudi Arabia.
# (§2) Minimum inhibitory concentration (MIC) assay was performed to evaluate the in vitro antimicrobial activities using a broth microdilution method ([Nascente, 2009]). Three bacterial strains Escherichia coli (ATCC 25922), Pseudomonas aeruginosa (ATCC 27853), and Staphylococcus aureus were applied to examine the antimicrobial activity of samples. Briefly, the microbial strains were transferred to Muller Hinton agar (MHB, HiMedia, India) and 24-h colonies were individually suspended in 10 mL Muller Hinton broth (MHB, HiMedia, India). The suspension of each microbial strain was standardized at 575 nm wavelength using a spectrophotometer (CRAIC Technologies, CA, USA), to match the McFarland scale (1.5 × 10^8 CFU mL^−1). The standardized suspension was further diluted to obtain a final concentration of 5 × 10^5 CFU mL^−1. The samples prepared in DMSO at 1 mgmL^−1 and different concentrations (30–500 µgmL^−1) were attained after dilution in Mueller Hinton broth. Three inoculated wells containing different concentrations of DMSO (4% to 1% range), one non-inoculated well without an antimicrobial agent and negative controls were included. The inoculated well was used to monitor whether the broth was sufficient for the microbial strain to grow. Chloramphenicol ([…]) was applied as a positive control. The sample treated 96-well microplates were sealed and incubated for 24 h at 37 °C After a 1-day incubation, […] of 0.02% resazurin solution was added into each well to examine the viability of the microbial strain ([Palomino et al., 2002]). The minimum used concentration of test sample that inhibited the microorganism growth (MIC value) was calculated as the minimum concentration of the test samples required to prevent the color change of the resazurin solution. All the assays were performed in triplicates.
# [3] = tested on: Escherichia coli (ATCC 25922); test: MIC, broth microdilution with resazurin; type: cell-based; details: 24 h at 37 °C; for MIC: Escherichia coli, ATCC25922, 24 h
# Experimental: as §1, §2
# [4] = tested on: Pseudomonas aeruginosa (ATCC 27853); test: MIC, broth microdilution with resazurin; type: cell-based; details: 24 h at 37 °C; for MIC: Pseudomonas aeruginosa, ATCC27853, 24 h
# Experimental: as §1, §2
# [5] = target: T1, acetylcholinesterase (AChE) (Mus musculus, UniProt P21836); test: biochemical; details: for Donep (mg/gm) Avg (AChE inhibitory activity) / Abs (AChE inhibitory activity) / Donep (mg/gm) (AChE inhibitory activity), single trial: Conc 10 µg/mL; for Donep (mg/gm) Avg (AChE inhibitory activity): average of trials A-C; for Abs (AChE inhibitory activity) / Donep (mg/gm) (AChE inhibitory activity), single trial: single trials A, B, C; for IC50: crude enzyme from mouse brain, mean ± SD, triplicate, read-out: AChE IC50 (converted)
# T1 construct: Crude enzymes, AChE (acetylcholinesterase) and BChE (butyrylcholinesterase) were collected from brain of mice and blood of humans, respectively; from tissue; host or cells: mouse brain
# T1 sequence (P21836 32-614): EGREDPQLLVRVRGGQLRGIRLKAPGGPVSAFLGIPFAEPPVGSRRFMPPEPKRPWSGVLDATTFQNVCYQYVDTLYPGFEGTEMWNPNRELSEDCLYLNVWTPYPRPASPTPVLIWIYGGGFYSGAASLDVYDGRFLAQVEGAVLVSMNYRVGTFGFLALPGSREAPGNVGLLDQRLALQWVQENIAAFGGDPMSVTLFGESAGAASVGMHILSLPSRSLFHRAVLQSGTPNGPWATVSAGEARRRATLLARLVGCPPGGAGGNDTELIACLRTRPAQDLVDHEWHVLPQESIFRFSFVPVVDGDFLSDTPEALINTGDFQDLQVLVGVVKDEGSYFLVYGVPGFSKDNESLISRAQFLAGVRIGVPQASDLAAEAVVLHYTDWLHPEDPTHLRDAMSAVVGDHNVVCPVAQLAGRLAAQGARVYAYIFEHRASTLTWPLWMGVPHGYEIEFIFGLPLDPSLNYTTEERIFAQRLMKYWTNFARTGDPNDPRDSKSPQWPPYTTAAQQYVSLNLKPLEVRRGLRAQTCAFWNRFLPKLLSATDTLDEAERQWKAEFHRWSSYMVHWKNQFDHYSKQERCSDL
# Experimental: (§3) The acetylcholinesterase (AChE) and butyrylcholinesterase (BChE) were obtained from the mouse brain and human blood at the Pharmacology Department of King Saud University, SaudiArabia.
# (§4) The AChE and BChE assays were tested by using two chemical substrates acetylthiocholine iodide and S-butyrylthiochoilne iodide, respectively. […] Afterwards, […] (1 mM, 62 µL), sodium phosphate buffer (50 mM, 25 µL, pH 8) provided with bovine albumin serum (0.1%) and […] (0.5 mm, 13 µL) were added separately into each reaction mixture. […] All the experiments were performed in triplicates to avoid error and the results were estimated through the two-tailed Student’s t-test at a p < 0.05 significance. The inhibition percentage of cholinesterase activity was calculated using the following equation I%=AC−As/AC×100
# (§5) where Ac and As is the absorbance of control and sample or reference compound. IC50 values could be determined from the dose response curve obtained by plotting the percent inhibition values against test concentrations of each compound.
# [6] = target: T2, butyrylcholinesterase (BChE) (Homo sapiens, UniProt P06276); test: biochemical; details: for Gal (mg/gm) Avg (BChE inhibitory activity) / Abs (BChE inhibitory activity) / Gal (mg/gm) (BChE inhibitory activity), single trial: Conc 10 µg/mL; for Gal (mg/gm) Avg (BChE inhibitory activity): average of trials A-C; for Abs (BChE inhibitory activity) / Gal (mg/gm) (BChE inhibitory activity), single trial: single trials A, B, C; for IC50: crude enzyme from human blood, mean ± SD, triplicate, read-out: BChE IC50 (converted);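 as to Abs (BChE inhibitory activity): absorbance read at 405 nm against blank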
# T2 construct: Crude enzymes, AChE (acetylcholinesterase) and BChE (butyrylcholinesterase) were collected from brain of mice and blood of humans, respectively; from tissue; host or cells: human blood
# T2 sequence (P06276 29-602): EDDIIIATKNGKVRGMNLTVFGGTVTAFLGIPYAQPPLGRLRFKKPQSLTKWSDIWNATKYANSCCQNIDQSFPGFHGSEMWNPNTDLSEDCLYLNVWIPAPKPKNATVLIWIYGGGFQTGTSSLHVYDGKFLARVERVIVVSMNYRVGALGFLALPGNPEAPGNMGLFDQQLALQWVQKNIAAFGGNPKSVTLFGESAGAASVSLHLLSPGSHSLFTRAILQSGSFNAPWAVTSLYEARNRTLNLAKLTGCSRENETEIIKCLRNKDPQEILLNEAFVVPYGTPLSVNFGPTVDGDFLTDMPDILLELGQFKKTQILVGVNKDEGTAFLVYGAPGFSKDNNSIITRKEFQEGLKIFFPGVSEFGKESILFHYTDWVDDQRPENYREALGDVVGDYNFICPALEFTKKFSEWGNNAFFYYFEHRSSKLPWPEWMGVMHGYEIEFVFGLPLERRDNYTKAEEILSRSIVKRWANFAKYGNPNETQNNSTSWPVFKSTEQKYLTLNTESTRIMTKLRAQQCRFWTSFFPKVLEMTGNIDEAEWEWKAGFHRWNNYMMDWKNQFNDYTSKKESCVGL
# Experimental: as §3, §4, §5
# [7] = S. aureus, read-out: Minimum inhibitory concentration
# [8] = E. coli, read-out: Minimum inhibitory concentration
# [9] = P. aeruginosa, read-out: Minimum inhibitory concentration
smiles,measurement,setting,value
"O=C1O[C@H]([C@@H](O)CO)C(O)=C1O [Ascorbic acid, ascorbic acid, reference compound]",AA (mg/gm) Avg (ABTS+ activity),[1],4.45 mg/gm
same,"AA (mg/gm) (ABTS+ activity), single trial",[1],4.52 mg/gm and 4.25 mg/gm and 4.58 mg/gm
same,ABTS^+ IC50,[1],4.45 ± 0.17^a µgmL^−1
same,AA (mg/gm) Avg (DPPH activity),[2],3.12 mg/gm
same,"AA (mg/gm) (DPPH activity), single trial",[2],3.30 mg/gm and 2.84 mg/gm and 3.22 mg/gm
same,DPPH IC50,[2],3.12 ± 0.24^a µgmL^−1
"O=C(N[C@H](CO)[C@H](O)c1ccc([N+](=O)[O-])cc1)C(Cl)Cl [Chloramphenicol, reference compound]",MIC,Staphylococcus aureus; [7],≤ 40 µg/mL
same,MIC,[3]; [8],≤ 40 µg/mL
same,MIC,[4]; [9],≤ 40 µg/mL
"CCCCCCCCCCCCCCCCCCCCC(O)C(=O)O (stereo not drawn) [Compound 1, 2-hydroxydocosanoic acid]",AA (mg/gm) Avg (ABTS+ activity),[1],11.45 mg/gm
same,"AA (mg/gm) (ABTS+ activity), single trial",[1],11.64 mg/gm and 11.02 mg/gm and 11.70 mg/gm
same,ABTS^+ IC50,[1],11.45 ± 0.37^d µgmL^−1
same,AA (mg/gm) Avg (DPPH activity),[2],10.82 mg/gm
same,"AA (mg/gm) (DPPH activity), single trial",[2],10.98 mg/gm and 10.54 mg/gm and 10.96 mg/gm
same,DPPH IC50,[2],10.82 ± 0.24^d µgmL^−1
same,MIC,Staphylococcus aureus; [7],≤ 1000 µg/mL
same,MIC,[3]; [8],≤ 500 µg/mL
same,MIC,[4]; [9],≤ 1000 µg/mL
same,Donep (mg/gm) Avg (AChE inhibitory activity),[5],121.97 mg/gm
same,Abs (AChE inhibitory activity),[5],0.342 and 0.328 and 0.345
same,"Donep (mg/gm) (AChE inhibitory activity), single trial",[5],122.89 mg/gm and 120.10 mg/gm and 122.92 mg/gm
same,IC50,[5],342 µM
same,Gal (mg/gm) Avg (BChE inhibitory activity),[6],137.76 mg/gm
same,Abs (BChE inhibitory activity),[6],0.375 and 0.379 and 0.354
same,"Gal (mg/gm) (BChE inhibitory activity), single trial",[6],138.12 mg/gm and 136.98 mg/gm and 138.18 mg/gm
same,IC50,[6],386 µM
"CC[C@@H](/C=C/[C@@H](C)C1CCC2C3CCC4C[C@@H](O)CC[C@]4(C)C3CC[C@@]21C)C(C)C (stereo partly drawn) [Compound 2, stigmasta-22-ene-3-β-ol]",AA (mg/gm) Avg (ABTS+ activity),[1],8.18 mg/gm
same,"AA (mg/gm) (ABTS+ activity), single trial",[1],8.25 mg/gm and 8.02 mg/gm and 8.28 mg/gm
same,ABTS^+ IC50,[1],8.18 ± 0.13^c µgmL^−1
same,AA (mg/gm) Avg (DPPH activity),[2],7.60 mg/gm
same,"AA (mg/gm) (DPPH activity), single trial",[2],7.84 mg/gm and 7.12 mg/gm and 7.86 mg/gm
same,DPPH IC50,[2],7.60 ± 0.42^c µgmL^−1
same,Minimum inhibitory concentration,Staphylococcus aureus; S. aureus,≤150 µg/mL
same,MIC,"Staphylococcus aureus; read-out: Minimum inhibitory concentration, S. aureus",≤ 150 µg/mL
same,Minimum inhibitory concentration,[3]; E. coli,≤125 µg/mL
same,MIC,"[3]; read-out: Minimum inhibitory concentration, E. coli",≤ 125 µg/mL
same,Minimum inhibitory concentration,[4]; P. aeruginosa,≤250 µg/mL
same,MIC,"[4]; read-out: Minimum inhibitory concentration, P. aeruginosa",≤ 250 µg/mL
same,pIC50,[5],3.78
same,Donep (mg/gm) Avg (AChE inhibitory activity),[5],68.65 mg/gm
same,Abs (AChE inhibitory activity),[5],0.312 and 0.315 and 0.317
same,"Donep (mg/gm) (AChE inhibitory activity), single trial",[5],68.94 mg/gm and 68.01 mg/gm and 69.02 mg/gm
same,pIC50,[6],3.92
same,Gal (mg/gm) Avg (BChE inhibitory activity),[6],49.52 mg/gm
same,Abs (BChE inhibitory activity),[6],0.355 and 0.365 and 0.358
same,"Gal (mg/gm) (BChE inhibitory activity), single trial",[6],49.70 mg/gm and 49.12 mg/gm and 49.74 mg/gm
"CCCCCCCCCCCCCCCCCCCCCCCCCCCCCCCC(=O)O[C@H]1C[C@H](O)[C@]2(C)C3=CC=C4[C@@H]5CC(CO)(C(=O)O)CC[C@]5(C)CC[C@@]4(C)[C@]3(C)CCC2C1(C)C (stereo partly drawn) [Compound 3, 1α,3β,30-Trihydroxy-29-carboxy-olean-9(11), 12-diene-3-dotriacontanoate]",AA (mg/gm) Avg (ABTS+ activity),[1],6.42 mg/gm
same,"AA (mg/gm) (ABTS+ activity), single trial",[1],6.56 mg/gm and 6.13 mg/gm and 6.58 mg/gm
same,ABTS^+ IC50,[1],6.42 ± 0.25^b µgmL^−1
same,AA (mg/gm) Avg (DPPH activity),[2],4.67 mg/gm
same,"AA (mg/gm) (DPPH activity), single trial",[2],4.89 mg/gm and 4.35 mg/gm and 4.78 mg/gm
same,DPPH IC50,[2],4.67 ± 0.28^b µgmL^−1
same,Minimum inhibitory concentration,Staphylococcus aureus; S. aureus,≤125 µg/mL
same,Minimum inhibitory concentration,"Staphylococcus aureus; S. aureus, listed as compound 3",≤ 125 µg/mL
same,MIC,Staphylococcus aureus; [7],125 to 150 µg/mL
same,Minimum inhibitory concentration,[3]; E. coli,≤150 µg/mL
same,Minimum inhibitory concentration,"[3]; E. coli, listed as compound 3",≤ 150 µg/mL
same,MIC,[3]; [8],125 to 150 µg/mL
same,Minimum inhibitory concentration,[4]; P. aeruginosa,≤125 µg/mL
same,Minimum inhibitory concentration,"[4]; P. aeruginosa, listed as compound 3",≤ 125 µg/mL
same,MIC,[4]; [9],125 to 150 µg/mL
same,Donep (mg/gm) Avg (AChE inhibitory activity),[5],38.13 mg/gm
same,Abs (AChE inhibitory activity),[5],0.289 and 0.294 and 0.315
same,"Donep (mg/gm) (AChE inhibitory activity), single trial",[5],38.16 mg/gm and 38.05 mg/gm and 38.20 mg/gm
same,IC50,[5],40.2 µM
same,Gal (mg/gm) Avg (BChE inhibitory activity),[6],32.68 mg/gm
same,Abs (BChE inhibitory activity),[6],0.285 and 0.286 and 0.287
same,"Gal (mg/gm) (BChE inhibitory activity), single trial",[6],32.88 mg/gm and 32.25 mg/gm and 32.92 mg/gm
same,IC50,[6],34.4 µM
"COc1ccc2c3c1O[C@H]1C[C@@H](O)C=C[C@@]31CCN(C)C2 [Galantamine, reference compound]",Gal (mg/gm) Avg (BChE inhibitory activity),[6],10.27 mg/gm
same,Abs (BChE inhibitory activity),[6],0.345 and 0.348 and 0.352
same,"Gal (mg/gm) (BChE inhibitory activity), single trial",[6],10.78 mg/gm and 9.29 mg/gm and 10.80 mg/gm
